Experiment: in vitro
Settings: human, hela cells, % viability

SMILES | viability at 28.5 h, 10 µM [%]
O=C(O)c1cc(NC(=O)C(c2ccccc2)c2ccccc2)cc(C(=O)O)c1 [CBK261191] | 93.2
CC1Cc2cc(CC(=O)N(C)CC(F)(F)F)ccc2O1 (stereo not shown) [CBK283067] | 109
O=C(Nc1nc2ccccc2s1)c1cccnc1Cl [CBK071983] | 108
CCOC(=O)c1sc(NS(=O)(=O)c2ccc(-c3ccccc3)cc2)nc1C [CBK003784] | 106
CCc1nnc(SCC(=O)Nc2cccc(OC)c2)[nH]1 [CBK270226] | 93.7
COC1C(O)C(CO)OC1n1cc(F)c(Oc2c(C)cc(C)cc2C)nc1=O (stereo not shown) [CBK201279] | 98.2
Cc1cc2ncc3c(n2n1)NC(c1ccc(Cl)cc1Cl)NC3=O (stereo not shown) [CBK291167] | 90.8
CC(C)(C)c1cc(CCCOC(=O)CNC2CCCCC2)cc(C(C)(C)C)c1O [CBK261998] | 89.4
N#Cc1cccnc1SC(C(=O)O)c1ccccc1 (stereo not shown) [CBK286614] | 106
COc1cc(F)cc(OC2CCNCC2)c1NC(=O)Cc1cn(C)c2ccccc12 [CBK050245T] | 105
CN(C)CC(C)(C)CNC1CCN(C)CC1 [CBK261926] | 95.2
O=C(NC(Cc1ccsc1)c1ccccn1)c1ccc(=O)[nH]c1 (stereo not shown) [CBK285272] | 106
COCC(=O)N1C2CCC(C2)[C@@H]1COc1ccc(F)cc1 (stereo partly shown) [CBK284603] | 109
O=C(Nc1ccc(N2CCNCC2)c2ccccc12)c1coc2c1C(=O)CCC2 [CBK038946T] | 81.5
COc1ccc(S(=O)(=O)NCc2ccc3c(c2)OCO3)cc1C(=O)O [CBK264070] | 97.6
COc1ccc(Nc2nc(N)nc(CN3CC(C)CC(C)C3)n2)cc1 (stereo not shown) [CBK288154] | 99.2
Nc1cc2cccnc2c(-c2ccc3c(c2)CCO3)n1 [CBK081173] | 98
O=C(O)c1cc(-c2cccc(O)c2)nc2ccc(Br)cc12 [CBK261777] | 97.9
N#CC1CCCc2c1[nH]c1ccccc21 (stereo not shown) [CBK098397] | 74.9
Cc1cc(C(=O)NC2(C#N)CCSCC2)n(C)n1 [CBK306386] | 90.9
CCSc1nnnn1-c1cccc(NC(C)=O)c1 [CBK305511] | 94.4
Cc1ccc(Cl)cc1NC(=O)c1cnc2scc(C)n2c1=O [CBK287464] | 98.7
COc1ccc(NS(=O)(=O)c2cc(C(=O)O)c(Cl)cc2Cl)cc1 [CBK095077] | 89.7

SMILES | viability at 28.5 h, 10 µM [%]
O=C(c1c[nH]c2ccccc12)N1CCC(Cc2ccccc2)CC1 [CBK200180] | 91.3
COCC(=O)N1CCN(C(=O)N2CCOCC2)C[C@@H]1C(=O)OC [CBK289613] | 109
Cc1ccc(C2(O)CC3CCC(C2)N3C(=O)c2ccncc2)cc1 (stereo not shown) [CBK284609] | 100
Cc1cn(CC(=O)N2CCC3(CCN(Cc4ccccc4)C3)C2)c(=O)[nH]c1=O (stereo not shown) [CBK136840] | 91.6
O=C(Nc1cncc(OC2CCNCC2)n1)c1ccoc1 [CBK036366T] | 92
O=C(c1cc2cc(F)ccc2[nH]1)N1CCN(c2ncccn2)CC1 [CBK107280] | 91.8
Cn1c(SCc2ccccc2)nc2ccsc2c1=O [CBK288039] | 82.1
Cc1nc(-c2ccccc2)sc1CNC(=O)C(F)(F)F [CBK092363] | 88.8
Cc1cc2cn([C@H]3C[C@@H](O)[C@@H](CO)O3)c(=O)nc2[nH]1 [CBK201302] | 100
CC(=O)N1CCN(c2ccccc2NC(=O)Cc2ccccc2C(=O)O)CC1 [CBK286802] | 87.6
CCOC(=O)N1COC[C@@H]1C(=O)O [CBK010379] | 81.5
C(=C\c1ccc(-c2nnc(CSCCOc3ccccc3)o2)cc1)/CN1CCCC1 [CBK081376] | 98.5
O=C(c1ccc(CO)o1)N1CCn2cc(C(F)(F)F)nc2C1 [CBK283914] | 94
CCc1ccc(OCC(=O)Nc2cccnc2)cc1 [CBK264658] | 96.6
N#Cc1cccnc1N1CC(C(=O)O)C2(CCC2)C1 (stereo not shown) [CBK304415] | 93.7
CCN1CCC(CC(=O)N2CCc3[nH]c4ccccc4c3C2)CC1 [CBK281846] | 86.5
CCOC(=O)n1c(=O)n2n(c1=O)CC=CC2 [CBK023102] | 93.9
Cc1cc(C)nc(NC(=O)OCCN2CCN(C)CC2)c1 [CBK138235] | 92.2
O=C(c1ccco1)N1CCN(C2C3CCCC2CNC3)CC1 (stereo not shown) [CBK284992] | 94.4
Cc1ccc(Nc2nc(N)nc(CN3CCCC3)n2)cc1 [CBK270163] | 97.7
O=c1[nH]ccn2nc(-c3ccc4c(c3)OCO4)cc12 [CBK288048] | 87.7
Cc1c(CCC(=O)N2CCCC(C(=O)O)C2)c(=O)oc2c(C)c(O)ccc12 (stereo not shown) [CBK286764] | 88.5
O=C(O)c1ccc(S(=O)(=O)N2CCOCC2)cc1 [CBK287201] | 82.2

SMILES | viability at 28.5 h, 10 µM [%]
CCn1c2ccccc2c2cc(CN3CCN(S(=O)(=O)c4ccc(NC(C)=O)cc4)CC3)ccc21 [CBK264248] | 94.1
COC(=O)n1c(=O)oc2ccc(Cl)cc21 [CBK026774] | 101
CCC(Cn1ccnc1)NS(=O)(=O)c1cc(-n2cccn2)ccc1OC (stereo not shown) [CBK307483] | 87.8
CCOC(=O)C(Cc1ccccc1)NC(=O)c1ccc(C)nc1 (stereo not shown) [CBK305952] | 89.6
CCS(=O)(=O)NC1CCN(c2nc(C(F)(F)F)nc3[nH]cnc23)CC1 [CBK304588] | 86.8
CC(C)CC(C(=O)Nc1nnc(C(C)C)s1)N1C(=O)c2ccccc2C1=O (stereo not shown) [CBK091610] | 77.3
O=C(/C=C/c1ccco1)Nc1cccc2c(NC(=O)/C=C/c3ccco3)cccc12 [CBK264974] | 99.7
CC(=O)Nc1nc(-c2ccccc2C)ccc1C(=O)NC1CCCCC1 [CBK106327] | 99
C[C@H](Nc1nc(-c2cccc3ncccc23)cnc1N)c1ccccc1 [CBK063771] | 97.6
Cc1ccc(C2CCCN2C(=O)c2ccc(=O)n(CC(=O)NC3CCCCC3)c2)cc1C (stereo not shown) [CBK285982] | 97.4
CC(C)COC(=O)N1CCC(C(=O)NC(c2ccc(Cl)cc2)c2cnccn2)CC1 (stereo not shown) [CBK059668] | 99.2
Cn1c(COc2ccccc2)nnc1SCC(=O)c1cccc([N+](=O)[O-])c1 [CBK268397] | 101
CC(C)NC(=O)Nc1ccc(C(=O)N(CCC#N)C(C)C2CC2)cc1 (stereo not shown) [CBK305312] | 110
CCCn1ccnc1CN1CCC2(CC1)CC(C(=O)O)N(C(C)=O)C2 (stereo not shown) [CBK306691] | 92.9
CCN(C)C(=O)N1CCN(CCCC(c2ccc(F)cc2)c2ccc(F)cc2)CC1 [CBK024910C] | 90.6
O=S(=O)(Nc1ccc2cn[nH]c2c1)c1ccc(-c2ccon2)s1 [CBK067157] | 98.3
O=C(c1ccsc1NS(=O)(=O)/C=C/c1ccccc1)N1CCOCC1 [CBK042285] | 90.8
CCN1CCN(c2ccc(C(=O)OC)cc2NC(=O)c2ccccc2Cl)CC1 [CBK270267] | 98.3
O=C(NCc1nnc(-c2cccs2)o1)c1ccccc1-c1ccccc1 [CBK286293] | 112
C=C(C)Cn1c(SCC(C)C)nnc1-c1cccs1 [CBK200086] | 96.5
CC(C)c1ccc(/C=C/C(=O)NCc2ccc3occc3c2)cc1 [CBK149620] | 93.3
Cc1ccc(-c2noc(CN3CCN(c4ccccn4)CC3)n2)cc1 [CBK266457] | 95.7
CCCC/C=C/c1cnc(N)c(-c2cccc(N)c2)n1 [CBK063954] | 102

SMILES | viability at 28.5 h, 10 µM [%]
CCOCCC(=O)N/N=C(/C)c1ccc(Cl)s1 [CBK007454] | 94.8
Cc1cccc(-c2ncc(C(=O)NCCN3CCOCC3)cc2-c2ccc(O)cc2)c1 [CBK037435] | 105
CCCc1cc(=O)n2c(n1)SCOC2 [CBK010967] | 108
Cc1nccnc1N1CCC2(CCCN(CC3CCC3)C2=O)C1 (stereo not shown) [CBK306806] | 103
CC(C)c1ccc(S(=O)(=O)N(c2ccccc2)C2CCNCC2)cc1 [CBK165088T] | 108
COc1cccc(C(=O)NC(c2ccc(OC)c(OC)c2)c2cc(Cl)c3cccnc3c2O)c1 (stereo not shown) [CBK264048] | 95.4
CN1C2CCC1CC(OC(c1ccccc1)c1ccccc1)C2 (stereo not shown) [CBK011710G] | 99.6
O=C(O)c1ccc(-n2nnnc2SCc2ccccc2)cc1 [CBK287161] | 93.6
CCc1ccccc1-c1cccc(C(=O)NCC(O)CN(C)C)c1 (stereo not shown) [CBK306604] | 92.9
Cc1cc(N2C[C@H](CO)OC2=O)ccc1C#N [CBK017978] | 116
Cc1ccc(Cn2nc(NC(=O)C3CCCCC3)c3ccccc32)cc1 [CBK048217] | 96.5
c1ccc(COCCCN2CCC3(CC2)OCCc2c3[nH]c3ccccc23)cc1 [CBK040208] | 84.8
Cc1ccc(OCc2nnc(SCC(=O)c3cccc([N+](=O)[O-])c3)n2C)cc1 [CBK268580] | 86.9
Cc1c(C(C)NC(=O)C2C3CCC(O3)C2C(=O)O)cnn1C (stereo not shown) [CBK286887] | 91.4
CC(=O)Nc1ccc(S(=O)(=O)N2CCN(C(=O)c3cccnc3)CC2)cc1 [CBK264279] | 96.5
CCOc1ccc2ccccc2c1CNCCc1ccc(S(N)(=O)=O)cc1 [CBK268732C] | 88.7
FC(F)(F)c1ccc2c(c1)N(CCCN1CCN(C34CC5CC(CC(C5)C3)C4)CC1)c1ccccc1S2 [CBK261938] | 102
O=C1CCCC[C@@H]2[C@@H](N1)[C@H](c1ccccc1)CN2Cc1ccc2ccccc2n1 [CBK286281] | 93.1
FC(F)(F)c1cccc(-c2cn3ccnc3c(NCCc3ccccn3)n2)c1 [CBK066491] | 95.4
O=C(Nc1ccc(N2CCN(Cc3ccccc3)CC2)cc1)c1ccc(-c2ccccc2)cc1 [CBK268622] | 109
O=C(NC1CCCCC1)c1cc(S(=O)(=O)N2CCOCC2)ccc1Cl [CBK261662] | 96
Cc1ccc(SCC(=O)Nc2cc([N+](=O)[O-])ccc2O)cc1 [CBK268655] | 123
